Test: xn = mol fraction of the nth substance listed, in the solute-free solvent

Cc1ccc(Nc2nccc(N(C)c3ccc4c(C)n(C)nc4c3)n2)cc1S(N)(=O)=O + CC#N + CC(C)O
solubility (g/100 g solution)
Conditions | 288.15 K | 293.15 K | 298.15 K | 303.15 K | 308.15 K | 313.15 K | 318.15 K | 323.15 K | 328.15 K
x2 = 0.2679 | 0.00834 | 0.0123 | 0.0162 | 0.0208 | 0.0257 | 0.0311 | 0.0374 | 0.0456 | 0.0557
x2 = 0.4939 | 0.0116 | 0.0198 | 0.0273 | 0.0362 | 0.0457 | 0.0552 | 0.0651 | 0.0758 | 0.0876
x2 = 0.6871 | 0.0161 | 0.0249 | 0.0344 | 0.0445 | 0.0553 | 0.0662 | 0.079 | 0.0943 | 0.113
x2 = 0.8541 | 0.0119 | 0.0172 | 0.0243 | 0.0311 | 0.0393 | 0.0478 | 0.0563 | 0.0666 | 0.0803

CN1CCN(C(=O)OC2c3nccnc3C(=O)N2c2ccc(Cl)cn2)CC1 (configuration not stated) + CCO + O
solubility (g/100 g solution)
Conditions | x2 = 0.3 | x2 = 0.4 | x2 = 0.5 | x2 = 0.6 | x2 = 0.7 | x2 = 0.8 | x2 = 0.9
288.15 K | 0.129 | 0.242 | 0.377 | 0.527 | 0.59 | 0.511 | 0.375
298.15 K | 0.208 | 0.397 | 0.63 | 0.85 | 0.998 | 0.9 | 0.647
308.15 K | 0.296 | 0.666 | 1.02 | 1.32 | 1.43 | 1.3 | 0.911
318.15 K | 0.474 | 0.988 | 1.51 | 2.03 | 2.31 | 2.12 | 1.53
328.15 K | 0.818 | 1.65 | 2.51 | 3.27 | 3.65 | 3.31 | 2.53

COC(=O)C1=C(C)NC(C)=C(C(=O)OCC(C)C)C1c1ccccc1[N+](=O)[O-] (configuration not stated) + CCOC(C)=O + CCO
solubility (g/100 g solution)
Conditions | 278.15 K | 283.15 K | 288.15 K | 293.15 K | 298.15 K | 303.15 K | 308.15 K | 313.15 K | 318.15 K
x2 = 0.05491 | 3.09 | 3.87 | 4.65 | 5.7 | 6.64 | 8.03 | 9.37 | 11.1 | 12.9
x2 = 0.1156 | 3.98 | 4.79 | 5.78 | 6.75 | 8.13 | 9.47 | 11 | 12.8 | 14.5
x2 = 0.1831 | 4.91 | 5.89 | 6.97 | 8.15 | 9.36 | 10.8 | 12.3 | 14 | 15.7
x2 = 0.2585 | 5.53 | 6.46 | 7.49 | 8.75 | 10 | 11.5 | 13 | 14.7 | 16.6
x2 = 0.3434 | 5.99 | 6.94 | 8.09 | 9.33 | 10.6 | 12 | 13.7 | 15.3 | 17.2
x2 = 0.4396 | 6.34 | 7.36 | 8.52 | 9.66 | 11.2 | 12.6 | 14.2 | 15.9 | 17.7
x2 = 0.5496 | 6.6 | 7.63 | 8.77 | 10.1 | 11.4 | 12.8 | 14.4 | 16.1 | 18
x2 = 0.6765 | 6.76 | 7.78 | 8.91 | 10.2 | 11.5 | 13.1 | 14.7 | 16.3 | 18.2
x2 = 0.8247 | 6.8 | 7.86 | 9.01 | 10.2 | 11.6 | 13.1 | 14.6 | 16.3 | 18.2

CC(=O)Nc1ccc(OC(=O)c2ccccc2OC(C)=O)cc1 + CCO + O
solubility (g/100 g solution)
Conditions | 278.15 K | 283.15 K | 288.15 K | 293.15 K | 298.15 K | 303.15 K | 308.15 K | 313.15 K | 318.15 K
x2 = 0.04165 | 0.00299 | 0.00439 | 0.00634 | 0.00913 | 0.0133 | 0.0185 | 0.0258 | 0.0351 | 0.0474
x2 = 0.08908 | 0.00839 | 0.0122 | 0.0171 | 0.0242 | 0.0339 | 0.0464 | 0.0629 | 0.0839 | 0.112
x2 = 0.1436 | 0.0202 | 0.0284 | 0.0401 | 0.0539 | 0.0744 | 0.0995 | 0.133 | 0.175 | 0.232
x2 = 0.2068 | 0.037 | 0.0513 | 0.0699 | 0.0951 | 0.127 | 0.166 | 0.221 | 0.283 | 0.366
x2 = 0.2812 | 0.0604 | 0.0826 | 0.111 | 0.146 | 0.19 | 0.252 | 0.322 | 0.409 | 0.514
x2 = 0.3698 | 0.082 | 0.109 | 0.148 | 0.197 | 0.255 | 0.33 | 0.424 | 0.542 | 0.69
x2 = 0.4772 | 0.108 | 0.144 | 0.193 | 0.254 | 0.327 | 0.418 | 0.536 | 0.684 | 0.863
x2 = 0.6101 | 0.134 | 0.178 | 0.236 | 0.306 | 0.396 | 0.513 | 0.661 | 0.829 | 1.04
x2 = 0.7788 | 0.157 | 0.206 | 0.273 | 0.356 | 0.458 | 0.586 | 0.741 | 0.936 | 1.18

Clc1ncnc2[nH]ccc12 + C1CCOC1 + CC(C)O
solubility (g/100 g solution)
Conditions | 278.15 K | 283.15 K | 288.15 K | 293.15 K | 298.15 K | 303.15 K | 308.15 K | 313.15 K | 318.15 K | 323.15 K
x2 = 0.1584 | 3.68 | 4.2 | 4.8 | 5.46 | 6.15 | 6.89 | 7.74 | 8.58 | 9.6 | 10.6
x2 = 0.32 | 5.12 | 5.79 | 6.49 | 7.25 | 8.17 | 9.04 | 9.96 | 10.9 | 12 | 13.2
x2 = 0.4848 | 6.63 | 7.38 | 8.22 | 9.03 | 9.99 | 10.9 | 12 | 13.1 | 14.2 | 15.3
x2 = 0.5685 | 7.34 | 8.12 | 8.96 | 9.81 | 10.8 | 11.9 | 12.8 | 14 | 15.1 | 16.3
x2 = 0.6531 | 7.99 | 8.83 | 9.69 | 10.6 | 11.6 | 12.6 | 13.7 | 14.7 | 15.8 | 17
x2 = 0.8247 | 8.95 | 9.82 | 10.7 | 11.6 | 12.6 | 13.5 | 14.6 | 15.7 | 16.7 | 17.9

O=c1ccc2ccccc2o1 + CC(C)=O + O
solubility (g/100 g solution)
Conditions | x2 = 0.1 | x2 = 0.2 | x2 = 0.3 | x2 = 0.4 | x2 = 0.5 | x2 = 0.6 | x2 = 0.7 | x2 = 0.8 | x2 = 0.9
268.15 K | 0.474 | 2.21 | 4.51 | 9.81 | 13.8 | 17.1 | 19.9 | 21.9 | 23.1
273.15 K | 0.611 | 2.81 | 6.5 | 11.9 | 16.8 | 20.6 | 23.7 | 25.8 | 26.9
278.15 K | 0.798 | 3.96 | 8.98 | 15.3 | 20.9 | 25 | 27.8 | 30.6 | 31.5
283.15 K | 1.05 | 5.18 | 12.2 | 19.5 | 25.5 | 30.2 | 33.1 | 35.3 | 36.2
288.15 K | 1.38 | 6.75 | 16.8 | 24.6 | 31.4 | 36 | 39.3 | 41.2 | 41.8
293.15 K | 1.8 | 9.24 | 22.3 | 31.3 | 38.5 | 42.9 | 46.2 | 47.7 | 48
298.15 K | 2.27 | 12.3 | 29.6 | 38.4 | 45.7 | 49.6 | 52.6 | 53.6 | 53.9
303.15 K | 2.96 | 16.8 | 37.4 | 47 | 53.9 | 57.2 | 59.4 | 59.8 | 59.8

O=[N+]([O-])c1cc[nH]n1 + CCO + O
solubility (g/100 g solution)
Conditions | 283.15 K | 288.15 K | 293.15 K | 298.15 K | 303.15 K | 308.15 K | 313.15 K | 318.15 K | 323.15 K
x2 = 0.04165 | 0.265 | 0.347 | 0.44 | 0.528 | 0.709 | 0.854 | 1.16 | 1.49 | 1.89
x2 = 0.08908 | 0.319 | 0.385 | 0.478 | 0.581 | 0.718 | 0.87 | 1.15 | 1.44 | 1.83
x2 = 0.1436 | 0.409 | 0.521 | 0.689 | 0.942 | 1.16 | 1.49 | 1.89 | 2.41 | 3.08
x2 = 0.2068 | 0.482 | 0.6 | 0.75 | 0.956 | 1.18 | 1.48 | 1.87 | 2.34 | 2.97
x2 = 0.2812 | 0.53 | 0.639 | 0.777 | 0.962 | 1.16 | 1.46 | 1.8 | 2.24 | 2.82
x2 = 0.3698 | 1 | 1.2 | 1.45 | 1.71 | 2.08 | 2.5 | 3.05 | 3.86 | 4.83
x2 = 0.4772 | 1.69 | 1.98 | 2.32 | 2.72 | 3.26 | 3.87 | 4.68 | 5.83 | 7.1
x2 = 0.6101 | 2.68 | 3.06 | 3.52 | 4.09 | 4.83 | 5.64 | 6.66 | 8.11 | 9.68
x2 = 0.7788 | 3.98 | 4.51 | 5.09 | 5.8 | 6.58 | 7.79 | 9.11 | 10.7 | 12.4

O=C(CC(=O)c1ccccc1)c1ccccc1 + CC(C)O + O
solubility (g/100 g solution)
Conditions | 278.15 K | 283.15 K | 288.15 K | 293.15 K | 298.15 K | 303.15 K | 308.15 K | 313.15 K | 318.15 K
x2 = 0.2 | 0.0987 | 0.114 | 0.14 | 0.185 | 0.222 | 0.277 | 0.338 | 0.422 | 0.528
x2 = 0.4 | 0.264 | 0.353 | 0.459 | 0.618 | 0.711 | 1.05 | 1.26 | 1.73 | 4.77
x2 = 0.6 | 0.61 | 0.936 | 1.23 | 1.34 | 1.47 | 1.91 | 2.36 | 3.27 | 4.94
x2 = 0.8 | 0.977 | 1.43 | 1.48 | 2.1 | 2.32 | 2.93 | 3.69 | 4.5 | 7.02

Reference: the CheMixHub drug solubility set
